We go through eight compounds from article PMC7297122 (2020).

For assay [1], the system named is domain 1 crystallization RNA, 5-bromocytidine form (RNA, riboswitch, 5-bromocytidine at 3 or at 42 and 45 (which form per ligand: Table S1, not seen)) GGCUUCAACAACCCCGUAGGUUGGGCCGAAAGGCAGCGAAUCUACUGGAGCC
The assay is described as follows: X-ray crystallography. The note with it: Mg2+.

In assay [2] the test system is NAD+ riboswitch domain 1, wild type (unmodified domain 1 RNA) (RNA, riboswitch) GGCUUCAACAACCCCGUAGGUUGGGCCGCAAGGCAGCGAAUCUACUGGAGCC
The experiment in a line: ITC. Conditions: 100 mM KCl, 10 mM MgCl2; 40 mM HEPES-K pH 7.0 (pH 7.2 in Figure 5 legend), 298 K.

Assay [3] deals with domain 1 crystallization RNA, unmodified (RNA, riboswitch) GGCUUCAACAACCCCGUAGGUUGGGCCGAAAGGCAGCGAAUCUACUGGAGCC
The assay is described as follows: X-ray crystallography. The note with it: Mg2+.

Assay [4] has as its system C6 2'-deoxy atomic mutant domain 1 (RNA, riboswitch, 2'-deoxy at 6) GGCUUCAACAACCCCGUAGGUUGGGCCGCAAGGCAGCGAAUCUACUGGAGCC
The assay is described as follows: ITC. The note with it: 100 mM KCl, 10 mM MgCl2; 40 mM HEPES-K pH 7.0, 298 K; 1 mM ligand titrated into 100 µM RNA.

For assay [5], the system named is G47 2'-deoxy atomic mutant domain 1 (RNA, riboswitch, 2'-deoxy at 47) GGCUUCAACAACCCCGUAGGUUGGGCCGCAAGGCAGCGAAUCUACUGGAGCC
The assay is described as follows: ITC. The note with it: 100 mM KCl, 10 mM MgCl2; 40 mM HEPES-K pH 7.0, 298 K; 1 mM ligand titrated into 100 µM RNA.

Assay [6] deals with C6U:G47A mutant domain 1 (RNA, riboswitch) GGCUUUAACAACCCCGUAGGUUGGGCCGCAAGGCAGCGAAUCUACUAGAGCC
The assay is described as follows: ITC. The note with it: 100 mM KCl, 10 mM MgCl2; 40 mM HEPES-K pH 7.0, 298 K; 1 mM ligand titrated into 100 µM RNA.

For `Nc1ncnc2c1ncn2[C@@H]1O[C@H](COP(=O)(O)O)[C@@H](O)[C@H]1O`, the binding result in assay [1] is reported as “yes”.
Still for that read-out and setting: next, `Nc1ncnc2c1ncn2[C@@H]1O[C@H](COP(=O)(O)OP(=O)(O)OP(=O)(O)O)[C@@H](O)[C@H]1O`: “yes”.
`NC(=O)C1=CN([C@@H]2O[C@H](COP(=O)(O)OP(=O)(O)OC[C@H]3O[C@@H](n4cnc5c(N)ncnc54)[C@H](O)[C@@H]3O)[C@@H](O)[C@H]2O)C=CC1`: the binding entry in assay [1] (only ADP moiety visible, also Mn2+ form 6TFH) is “yes”.
Broadly, the Kd is the free concentration of one partner at which half of the binding sites on the other are occupied at equilibrium, for simple one-to-one binding. Low readings indicate a tighter complex, high ones a looser complex. In the case of `CNc1ncnc2c1ncn2[C@@H]1O[C@H](COP(=O)(O)OP(=O)(O)OP(=O)(O)O)[C@@H](O)[C@H]1O`, the Kd in assay [2] is 50 ± 19 µM. The binding result in assay [1] is “yes”.
In assay [2], `Nc1ncnc2c1ncn2[C@@H]1O[C@H](COP(=O)(O)OP(=O)(O)O)[C@@H](O)[C@H]1O` came in with a dissociation constant Kd of 89 ± 15 µM. The binding entry in assay [3] is on record as “yes”; in assay [4], “weak”; in assay [5], “weak”; in assay [6], “no”.
Turning to `Nc1ncnc2c1ncn2[C@@H]1O[C@H](COP(=O)(O)OP(=O)(O)OP(=O)(O)O)C[C@H]1O`, the binding entry in assay [3] is on record as “yes”.
In assay [2], `NC(=O)c1ccc[n+]([C@@H]2O[C@H](COP(=O)(O)OP(=O)(O)OC[C@H]3O[C@@H](n4cnc5c(N)ncnc54)[C@H](O)[C@@H]3O)[C@@H](O)[C@H]2O)c1` had a Kd of more than 150 µM. The binding entry in assay [1] (ADP moiety and nicotinamide ribose 5' carbon visible) is on record as “yes”.
In the case of `Nc1ncnc2c1ncn2[C@@H]1O[C@H](COP(=O)(O)OS(=O)(=O)O)[C@@H](OP(=O)(O)O)[C@H]1O`, the binding entry in assay [3] is recorded as “yes”.
